Literature values as cited in patent US20080166406A1, “Rapidly Disintegrating Dosage Form Comprising Magnesium Carbonate Heavy” (priority 2005, published 2008).

Conditions: water, neutral pH, acidic pH; general statement

Cc1cc2c(s1)Nc1ccccc1N=C2N1CCN(C)CC1 [Olanzapine]
Solubility: insoluble in water and neutral pH but more soluble at acidic pH
